Measurements: paper PMC7408964, “Efficient Therapeutic Delivery by a Novel Cell-Penetrating Peptide Derived from Acinus” (Cancers, 2020)
Where no end group is shown, it is not given here.

Tests used:
HUT78 Sézary cells = test: Cell viability, MTT assay, HUT78 cells (with or without cell death inhibitors); type: cell-based; conditions: 20 h; for effect of pan-caspase inhibitor zVAD-fmk on peptide-induced cytotoxicity: increasing peptide concentrations, 50 μM zVAD-fmk, MTT, n = 3
Protocol: (§3) Cells survival was assessed with the CellTiter 96® Aqueous One Solution Cell Proliferation Assay kit (Promega, Madison, WI, USA).

[1] = system: non-malignant CD4+ T-cells, CD3+CD4+Vβ− cells; test: Ex vivo cell death in Sézary patients' PBMC, 7-AAD flow cytometry, non-malignant CD4+ T-cells; type: cell-based, human; conditions: increasing concentrations, 4 h, 37 °C, PBMC of three patients
Source text: (§1) SS diagnosis was established on recognized international clinical, histological, and biological criteria. Blood from SS patients with more than 90% of malignant CD4^+ T cells (identified by their TCR-Vβ rearrangement) was collected for the present study, which was approved by the institutional ethics committee (Saint Louis Hospital, Paris. Protocol no. 2011-oct.12735). Peripheral blood mononuclear cells (PBMC) were isolated from heparinized venous blood by density gradient centrifugation over lymphocytes separating medium (LSM; PAA Laboratories, Les Mureaux, France). The Sézary cell line HUT78 was amplified as previously described and cultured in RPMI 1640 supplemented with 2 mM L-glutamine, 1% penicillin-streptomycin (Invitrogen) and 10% heat-inactivated fetal calf serum (Life Technologies). All other cell lines were cultured in DMEM supplemented with 2 mM L-glutamine, 1% penicillin-streptomycin (Invitrogen) and 10% heat-inactivated fetal calf serum (Life Technologies).
(§2) PBMC exposed or not to RT33 or RT33 DR were processed for flow cytometry to assess cell death. Cells were labelled with a mix of anti-TCR-Vβ-FITC, -CD3-PE, and -CD4-PE-Cy7 mAbs (Beckman Coulter). Detection of apoptotic cells was performed using 7 AAD (BD Biosciences). Cells were analyzed on a CytoFlex cytometer (Beckman Coulter) and data treated with FlowJo software.

non T-cells, CD3− cells = test: Ex vivo cell death in Sézary patients' PBMC, 7-AAD flow cytometry, non T-cells; type: cell-based, human; conditions: increasing concentrations, 4 h, 37 °C, PBMC of three patients
Source text: as §1, §2

[2] = system: normal (HaCat, MRC-5) cells; test: Cell viability, MTT assay, normal cells; type: cell-based; conditions: increasing concentrations, 20 h, n = 3
Protocol: as §3

[3] = system: HUT78 Sézary cells xenograft; test: Sub-cutaneous xenograft mouse model for the Sézary syndrome; type: in vivo, NOD/SCID gamma (NSG) mice; conditions: 5 mg/kg daily i.p.
Source text: Animal experiments were approved by The University Board Ethics Committee for Experimental Animal Studies (#2303.01). Xenograft tumors were obtained by subcutaneous injection of 10^6 HUT78 cells in the right flank of 8-week-old female NOD-SCID-gamma (NSG) mice, bred and housed under pathogen-free conditions at our animal facility (IUH, Saint Louis Hospital, Paris, France). Treatment started after randomization when tumors were visible and consisted of daily intraperitoneal (i.p.) injection of normal saline or RT33 or RT33 DR in normal saline (n = 5 per group). Tumor volume was measured every other day and calculated as: long axis × short axis^2 × 0.5. Animals were euthanized after 21 days of treatment or when tumor size reached the ethical end point and visceral organs were excised for a gross pathological examination. Tumors were fixed in 4% neutral buffered formalin and embedded in paraffin. Sections (4 µm) were stained with hematoxylin-eosin (H&E) and subjected to microscopic analysis and image recording. Histological analysis was performed at the HistIM facility of Cochin Institute (Paris, France). Slides were imaged using a Lamina multilabel slide scanner (Perkin Elmer).

Row | Substance | cell viability, AAC-11 portion alone (HUT78 Sézary cells; 20 µM, MTT assay, n = 3 (Supplementary Figure S4)) | cell death / viability of non-malignant CD4+ T-cells (7-AAD+) [1] | cell death / viability of non T-cells (7-AAD+) (non T-cells, CD3− cells) | cell viability of normal cells [2] | effect of pan-caspase inhibitor zVAD-fmk on peptide-induced cytotoxicity (HUT78 Sézary cells) | clinical symptoms during the experimental period [3]
1 | AAC-11 specific portion: peptide comprising AAC-11 residues 377 to 399, without CPP (LQYFARGLQVYIRQLRLALQGKT; UniProt Q9BZZ5 377-399, looked up, fragment) [reference compound] | nor the AAC-11 specific portion alone (Supplementary Figure S4) decreased cell viability |  |  |  |  | 
2 | RSRSRDRRRK [hAP10] |  | did not induce cell death | did not induce cell death |  |  | 
3 | RSRSRDRRRKLQYFARGLQVYIRQLRLALQGKT [RT33] |  | neither peptide decreased cell viability | neither peptide decreased cell viability | sparing the normal cells tested | did not block | No obvious clinical symptoms
4 | RSRSRRRRRK [hAP10DR] |  | did not induce cell death | did not induce cell death |  |  | 
5 | RSRSRRRRRKLQYFARGLQVYIRQLRLALQGKT [RT33DR] |  | neither peptide decreased cell viability | neither peptide decreased cell viability | sparing the normal cells tested | did not block | No obvious clinical symptoms
